Source: patent US10508077B2 (FORMA Therapeutics, Inc., priority 2015, dated 2019)

These compounds were tested against T1, Full length human recombinant HDAC8 protein (Homo sapiens, UniProt Q9BY41) (assay: In vitro histone deacetylase assay: enzymatic HDAC8 assay, electrophoretic mobility shift). Conditions: substrate RHKK(Ac)-NH2, 1 nM enzyme, compounds listed under IC50 range headings.
T1 construct: Full length human recombinant HDAC8 protein was expressed in baculoviral system; made in house
T1 sequence (Q9BY41 1-377): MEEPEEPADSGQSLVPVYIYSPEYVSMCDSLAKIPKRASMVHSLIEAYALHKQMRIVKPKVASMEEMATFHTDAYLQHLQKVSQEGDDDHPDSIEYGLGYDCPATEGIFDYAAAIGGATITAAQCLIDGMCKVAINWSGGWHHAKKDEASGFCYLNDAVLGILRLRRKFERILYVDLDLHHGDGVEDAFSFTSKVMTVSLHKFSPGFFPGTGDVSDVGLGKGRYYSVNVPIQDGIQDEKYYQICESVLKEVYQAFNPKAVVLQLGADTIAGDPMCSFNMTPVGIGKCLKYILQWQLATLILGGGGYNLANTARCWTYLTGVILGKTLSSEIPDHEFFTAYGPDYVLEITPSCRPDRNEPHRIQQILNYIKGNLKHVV
Assay type: biochemical
In short: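 Readout was microfluidic mobility-shift separation of deacetylated product from fluorescent RHKK(Ac)-NH2 substrate (2 µM), after reaction with 1 nM recombinant full-length human HDAC8 at 25 °C, pH 7.5, stopped with SDS. Twelve 3-fold-spaced concentrations tested; product/sum ratios normalized to controls and fitted with a 4-parameter model for IC50.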
In the case of `Cc1ccccc1C(C(=O)Nc1ccccc1/C=C/C(=O)NO)C(C)C` (centres unmarked) [Example I-278, (E)-N-(2-(3-(hydroxyamino)-3-oxoprop-1-en-1-yl)phenyl)-3-methyl-2-(o-tolyl)butanamide], the IC50 is reported as < 1 µM.
`O=C(/C=C/c1ccccc1NC(=O)C(c1ccccc1)C1CCCC1)NO` (centres unmarked) [Example I-279, (E)-3-(2-(2-cyclopentyl-2-phenylacetamido)phenyl)-N-hydroxyacrylamide] was tested, and the IC50 was < 1 µM.
For `Cc1ccc(Sc2ncccc2C(=O)Nc2ccccc2/C=C/C(=O)NO)cc1` [Example I-280, (E)-N-(2-(3-(hydroxyamino)-3-oxoprop-1-en-1-yl)phenyl)-2-(p-tolylthio)nicotinamide], the IC50 was < 1 µM.
With `Cc1nc(C(C)(C)C)sc1C(=O)Nc1ccccc1/C=C/C(=O)NO` [Example I-283, (E)-2-(tert-butyl)-N-(2-(3-(hydroxyamino)-3-oxoprop-1-en-1-yl)phenyl)-4-methylthiazole-5-carboxamide] the IC50 was < 1 µM.
For `COc1cc(-c2ccccc2)sc1C(=O)Nc1ccccc1/C=C/C(=O)NO` [Example I-284, (E)-N-(2-(3-(hydroxyamino)-3-oxoprop-1-en-1-yl)phenyl)-3-methoxy-5-phenylthiophene-2-carboxamide], the IC50 was < 1 µM.
In the case of `Cn1cc(-c2ncc(C(=O)Nc3ccccc3/C=C/C(=O)NO)s2)cn1` [Example I-285, (E)-N-(2-(3-(hydroxyamino)-3-oxoprop-1-en-1-yl)phenyl)-2-(1-methyl-1H-pyrazol-4-yl)thiazole-5-carboxamide], the IC50 is reported as < 1 µM.
For `Cc1cc(C(=O)Nc2ccccc2/C=C/C(=O)NO)ccc1-n1cnnn1` [Example I-286, (E)-N-(2-(3-(hydroxyamino)-3-oxoprop-1-en-1-yl)phenyl)-3-methyl-4-(1H-tetrazol-1-yl)benzamide], the IC50 was < 1 µM.
With `O=C(/C=C/c1ccccc1NC(=O)c1ccc(Cn2nnc3ccccc32)cc1)NO` [Example I-287, (E)-4-((1H-benzo[d][1,2,3]triazol-1-yl)methyl)-N-(2-(3-(hydroxyamino)-3-oxoprop-1-en-1-yl)phenyl)benzamide] the IC50 was < 1 µM.
In the case of `Cc1nc(C(C)C(=O)N2CCN(c3ccccc3/C=C/C(=O)NO)CC2)cs1` (centres unmarked) [Example I-289, (E)-N-hydroxy-3-(2-(4-(2-(2-methylthiazol-4-yl)propanoyl)piperazin-1-yl)phenyl)acrylamide], the IC50 is reported as < 1 µM.
In the case of `O=C(/C=C/c1ccccc1N1Cc2cc(Cl)c(Cl)cc2C1)NO` [Example I-290, (E)-3-(2-(5,6-dichloroisoindolin-2-yl)phenyl)-N-hydroxyacrylamide], the IC50 is reported as < 1 µM.
In the case of `CC(C(=O)N1CCN(c2ccccc2/C=C/C(=O)NO)CC1)c1ccc(Cl)cc1` (centres unmarked) [Example I-291, (E)-3-(2-(4-(2-(4-chlorophenyl)propanoyl)piperazin-1-yl)phenyl)-N-hydroxyacrylamide], the IC50 is reported as < 1 µM.
With `O=C(/C=C/c1ccccc1N1CCN(C(=O)C2(c3ccc(Cl)cc3)CC2)CC1)NO` [Example I-294, (E)-3-(2-(4-(1-(4-chlorophenyl)cyclopropane-1-carbonyl)piperazin-1-yl)phenyl)-N-hydroxyacrylamide] the IC50 was < 1 µM.
In the case of `O=C(/C=C/c1ccccc1N1CCN(C(=O)Cc2cccnc2)CC1)NO` [Example I-295, (E)-N-hydroxy-3-(2-(4-(2-(pyridin-3-yl)acetyl)piperazin-1-yl)phenyl)acrylamide], the IC50 is reported as < 1 µM.
With `O=C(/C=C/c1ccccc1N1CCN(C(=O)Cc2ccccn2)CC1)NO` [Example I-296, (E)-N-hydroxy-3-(2-(4-(2-(pyridin-2-yl)acetyl)piperazin-1-yl)phenyl)acrylamide] the IC50 was < 1 µM.
With `CC(Cc1ccccc1)C(=O)N1CCN(c2ccccc2/C=C/C(=O)NO)CC1` (centres unmarked) [Example I-297, (E)-N-hydroxy-3-(2-(4-(2-methyl-3-phenylpropanoyl)piperazin-1-yl)phenyl)acrylamide] the IC50 was < 1 µM.
For `O=C(/C=C/c1ccccc1N1CCN(CCc2ccc(Cl)cc2)CC1)NO` [Example I-299, (E)-3-(2-(4-(4-chlorophenethyl)pipera-zin-1-yl)phenyl)-N-hydroxyacrylamide], the IC50 was < 1 µM.
`CC(CN1CCN(c2ccccc2/C=C/C(=O)NO)CC1)c1ccccc1` (centres unmarked) [Example I-300, (E)-N-hydroxy-3-(2-(4-(2-phenylpropyl)piperazin-1-yl)phenyl)acrylamide] was tested, and the IC50 was < 1 µM.
For `CC(C)(C)OC(=O)NC1CCN(c2ccccc2/C=C/C(=O)NO)C1` (centres unmarked) [Example I-301, tert-butyl (E)-(1-(2-(3-(hydroxyamino)-3-oxoprop-1-en-1-yl)phenyl)pyrrolidin-3-yl)carbamate], the IC50 was < 1 µM.
With `O=C(/C=C/c1ccccc1N1CCN(c2ccccc2)C1=O)NO` [Example I-302, (E)-N-hydroxy-3-(2-(2-oxo-3-phenylimidazolidin-1-yl)phenyl)acrylamide] the IC50 was < 1 µM.
In the case of `O=C(/C=C/c1ccccc1NC(=O)c1ccnc(N2CCOCC2)c1)NO` [Example I-305, (E)-N-(2-(3-(hydroxyamino)-3-oxoprop-1-en-1-yl)phenyl)-2-morpholinoisonicotinamide], the IC50 is reported as < 1 µM.
`O=C(/C=C/c1ccccc1N1Cc2ccccc2C1=O)NO` [Example I-308, (E)-N-hydroxy-3-(2-(1-oxoisoindolin-2-yl)phenyl)acrylamide] was tested, and the IC50 was < 1 µM.
For `O=C(/C=C/c1ccccc1N1CC2CC1CN2C(=O)Cc1ccc(Cl)cc1)NO` [Example I-316, (E)-3-(2-((1S,4S)-5-(2-(4-chlorophenyl)acetyl)-2,5-diazabicyclo[2.2.1]heptan-2-yl)pheynyl)-N-hydroxyacrylamide], the IC50 was < 1 µM.
`O=C(/C=C/c1ccccc1N1CCC(NC(=O)c2ccccc2)C1)NO` (centres unmarked) [Example I-318, (E)-N-(1-(2-(3-(hydroxyamino)-3-oxoprop-1-en-1-yl)phenyl)pyrrolidin-3-yl)benzamide] was tested, and the IC50 was < 1 µM.
With `O=C(/C=C/c1ccccc1N1CCN(C(=O)C2(C(F)(F)F)CC2)CC1)NO` [Example I-322, (E)-N-hydroxy-3-(2-(4-(1-(trifluoromethyl)cyclopro-pane-1-carbonyl)piperazin-1-yl)phenyl)acrylamide] the IC50 was < 1 µM.
In the case of `O=C(/C=C/c1ccccc1N1C[C@@H]2C[C@H]1CN2C(=O)C1(c2ccc(Cl)cc2)CC1)NO` [Example I-329, (E)-3-(2-((1S,4S)-5-(1-(4-chlorophenyl)cyclopropane-1-carbonyl)-2,5-diazabicyclo[2.2.1]heptan-2-yl)phenyl)-N-hydroxyacrylamide], the IC50 is reported as < 1 µM.
For `O=C(/C=C/c1ccccc1NC1CCN(Cc2ccc(F)cc2)C1)NO` (centres unmarked) [Example I-330, (E)-3-(2-((1-(4-fluorobenzyl)pyrrolidin-3-yl)amino)phenyl)-N-hydroxyacrylamide], the IC50 was < 1 µM.
With `O=C(/C=C/c1ccccc1N1CCC(NC(=O)Cc2ccc(F)cc2)CC1)NO` [Example I-331, (E)-3-(2-(4-(2-(4-fluorophenyl)acetamido)piperidin-1-yl)phenyl)-N-hydroxyacrylamide] the IC50 was < 1 µM.
For `O=C(/C=C/c1ccccc1NC(=O)c1ccccc1)NO` [Example I-506, (E)-N-(2-(3-(hydroxyamino)-3-oxoprop-1-enyl)phenyl)benzamide 2,2,2-trifluoroacetate], the IC50 was < 1 µM.
With `O=C(/C=C/c1ccccc1N1CCN(C(=O)Nc2ccc(OC(F)(F)F)cc2)CC1=O)NO` [Example I-528, (E)-4-(2-(3-(hydroxyamino)-3-oxoprop-1-en-1-yl)phenyl)-3-oxo-N-(4-(trifluoromethoxy)phenyl)piperazine-1-carboxamide] the IC50 was < 1 µM.
With `O=C(/C=C/c1ccccc1N1CCN(C(=O)c2ccc(C(F)(F)F)cc2)CC1=O)NO` [Example I-532, (E)-N-hydroxy-3-(2-(2-oxo-4-(4-(trifluoromethyl)benzoyl)piperazin-1-yl)phenyl)acrylamide] the IC50 was < 1 µM.
In the case of `O=C(/C=C/c1ccccc1C(=O)Nc1ccc(-c2ccccc2)c(C(F)(F)F)c1)NO` [II-1], the IC50 is reported as 1 to 10 µM.
`O=C(/C=C/c1ccccc1C(=O)Nc1ccccc1)NO` [II-2, (E)-2-(3-(hydroxyamino)-3-oxoprop-1-en-1-yl)-N-phenylbenzamide] gave an IC50 of 1 to 10 µM.
Compound `CCc1ccc(NC(=O)c2ccccc2/C=C/C(=O)NO)cc1` [II-3, (E)-N-(4-ethylphenyl)-2-(3-(hydroxyamino)-3-oxoprop-1-en-1-yl)benzamide] has an IC50 of 1 to 10 µM.
In the case of `O=C(/C=C/c1ccccc1C(=O)NCC1CCCCC1)NO` [II-4, (E)-N-(cyclohexylmethyl)-2-(3-(hydroxyamino)-3-oxoprop-1-en-1-yl)benzamide], the IC50 is reported as 1 to 10 µM.
In the case of `COc1ccc(CNC(=O)c2ccccc2/C=C/C(=O)NO)cc1` [II-5, (E)-2-(3-(hydroxyamino)-3-oxoprop-1-en-1-yl)-N-(4-methoxybenzyl)benzamide], the IC50 is reported as 1 to 10 µM.
`O=C(/C=C/c1ccccc1C(=O)NCCc1ccc(F)cc1)NO` [II-6, (E)-N-(4-fluorophenethyl)-2-(3-(hydroxyamino)-3-oxoprop-1-en-1-yl)benzamide] gave an IC50 of 1 to 10 µM.
For `O=C(/C=C/c1ccccc1C(=O)NCc1ccc(-c2ccccc2)cc1)NO` [II-7, (E)-N-([1,1′-biphenyl]-4-ylmethyl)-2-(3-(hydroxyamino)-3-oxoprop-1-en-1-yl)benzamide], the IC50 was 1 to 10 µM.
In the case of `CC(=O)NC1CCN(C(=O)c2ccccc2/C=C/C(=O)NO)CC1` [II-8, (E)-3-(2-(4-acetamidopiperidine-1-carbonyl)phenyl)-N-hydroxyacrylamide], the IC50 is reported as 1 to 10 µM.
